Experimental data reported in PMC5461540, “MOB1 Mediated Phospho-recognition in the Core Mammalian Hippo Pathway” (Molecular & Cellular Proteomics : MCP, 2017).
Positions count from the first letter of the chain named. Read-outs that look alike come from different tables or passages of the source. Blank lines part the entries; values can stand above or below the molecule they belong to. Where a SMILES comes first, the peptide text is derived from it.

Legend:
MOB1A = biological target: T1, MOB1A (Homo sapiens, UniProt Q9H8S9); experiment: Fluorescence polarization peptide binding assay, MOB1A wild-type; settings: FP
T1 construct: MOB1A (2–216, NP_060691); 6xHis (N, cleaved yes); GST (N, cleaved yes); made in house; host or cells: E. coli BL21 (DE3) CodonPlus RIL
T1 sequence (Q9H8S9 2-216): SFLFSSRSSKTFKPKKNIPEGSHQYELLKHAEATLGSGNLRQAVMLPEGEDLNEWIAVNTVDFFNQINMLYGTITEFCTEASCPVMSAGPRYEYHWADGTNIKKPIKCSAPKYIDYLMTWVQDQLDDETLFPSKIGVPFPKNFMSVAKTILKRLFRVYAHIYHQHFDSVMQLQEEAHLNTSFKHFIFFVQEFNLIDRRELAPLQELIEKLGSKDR
Excerpt: (§1) Human MST1 kinase domain (amino acids 2–326, corresponding to NCBI RefSeq protein NP_006273), MST2 kinase domain (2–322, NP_006272), MOB1B (2–216, NP_001231695), MOB1A (2–216, NP_060691) wild-type and indicated MOB1A mutant proteins, MOB2 (2–237, NP_001165694), MOB3A (2–217, NP_570719), MOB3B (2–216, NP_079037), MOB3C (2–216, NP_660322), MOB4 (2–225, NP_056202), MOB4^RRR→AAA (2–225), and yeast Mob1 (79–314, NP_012160) were expressed in E. coli BL21 (DE3) CodonPlus RIL cells as N-terminal dual 6xhistidine (HIS) and glutathione S-transferase (GST), Tobacco Etch Virus (TEV) cleavable, fusion proteins using a modified pETM-30 vector. MOB wild-type and mutants were purified in batch on glutathione-Sepharose resin (GE Healthcare, Uppsala, Sweden) and eluted by cleavage from the affinity tags with HIS tagged TEV protease. TEV protease was removed from the eluted protein by subtractive immobilized-metal affinity chromatography. Cleaved protein was then concentrated and buffer exchanged by size exclusion chromatography (SEC) using a Superdex 75 120 ml column (GE Healthcare). For GST pull-downs and Far-Western analysis, the TEV cleavage step was omitted.
MST1 phosphopeptides encompassing pT353 and pT367 (15-mers) used for crystallization and FITC labeled nonphosphorylated and phosphorylated MST1 T353 peptides, T367 peptides, T329-T340 peptides, T380-T387 peptides and optimized Nud1-like peptides for fluorescence polarization binding experiments were purchased from Biomatik (Cambridge, ON). Peptide sequences used for crystallization studies are: T353, […](p)TMIEH and T367, […](p)TMVINA. All peptides used for biophysical studies are listed in supplemental Table S1.
Twelve-point fluorescence polarization binding measurements were performed in triplicate in 384-well plate format using an Analyst HT (Artisan-Scientific, Sunnyvale, CA) reader. Each 20 μl measurement condition contained 20 nM FITC labeled MST1 peptide or Nud1-like peptide and the indicated concentration of MOB proteins in 25 mM HEPES pH 7.5, 150 mM NaCl, 2 mM DTT, and 1 mg/ml bovine serum albumin (BSA). Kd values were obtained by fitting the results to a one site-specific binding model using GraphPad Prism.

MOB1A KRR→3A mutant = biological target: T2, MOB1A KRR→3A mutant (Homo sapiens, UniProt Q9H8S9, K153A/R154A/R157A); experiment: Fluorescence polarization peptide binding assay, MOB1A KRR→3A mutant (K153, R154, R157 to alanine); settings: Fig. 2B, MOB1A KRR→3A (K153, R154, R157 to alanine); FP, 20 nM FITC labeled peptide, pH 7.5; n = 3; N.D. = Kd could not be determined
T2 construct: MOB1A (2–216, NP_060691) wild-type and indicated MOB1A mutant proteins; 6xHis (N, cleaved yes); GST (N, cleaved yes); made in house; host or cells: E. coli BL21 (DE3) CodonPlus RIL
T2 sequence (Q9H8S9 2-216 K153A/R154A/R157A): T1 sequence (Q9H8S9 2-216) with K152A, R153A, R156A
Excerpt: as §1, with “TEV protease was removed from the eluted protein by subtractive immobilized-metal affinity chromatography. Cleaved protein was then concentrated and buffer exchanged by size exclusion chromatography (SEC) using a Superdex 75 120 ml column (GE Healthcare). For GST pull-downs and Far-Western analysis, the TEV cleavage step was omitted.” left out
MST1 phosphopeptides encompassing pT353 and pT367 (15-mers) used for crystallization and FITC labeled nonphosphorylated and phosphorylated MST1 T353 peptides, T367 peptides, T329-T340 peptides, T380-T387 peptides and optimized Nud1-like peptides for fluorescence polarization binding experiments were purchased from Biomatik (Cambridge, ON). […]
Twelve-point fluorescence polarization binding measurements were performed in triplicate in 384-well plate format using an Analyst HT (Artisan-Scientific, Sunnyvale, CA) reader. […]

yeast Mob1 = yeast Mob1 binding to Nud1 short linear phosphopeptide motif; cited from earlier work
Excerpt: Key to its function as a Hippo pathway activator is the ability of MOB1 to bind directly to MST1 and MST2 kinases. Recent structural studies provided key insight into the underlying mechanism of binding.

GST-MOB1B = experiment: Peptide array Far-Western overlay with GST-MOB1B; assay type: binding, human; settings: cellulose-bound 15-mer peptide SPOT array probed with 1 μg GST-MOB1B at 20 °C overnight, anti-GST HRP detection
Procedure: Cellulose-bound peptide arrays were prepared employing Fmoc solid phase peptide synthesis using a MultiPep-RSi-Spotter (INTAVIS, Köln, Germany) according to the SPOT synthesis method provided by the manufacturer, and previously described ([29]). Peptides were synthesized on amino-functionalized cellulose membranes (Whatman™ Chromatography paper Grade 1CHR, GE Healthcare Life Sciences #3001–878) and the presence of SPOTed peptides was confirmed by ultraviolet light (UV, λ = […]). Peptide sequences were chosen for each of the phosphorylated sites within the sequence encompassing residues 327 to 487 of MST1 as reported in PhosphositePlus (31/01/2014, ref 30). In addition, 15 amino acid-long peptides spanning the entire MST1 linker region (aa 327–487) were also synthesized in both phospho- and nonphosphorylated versions (for every serine, threonine, or tyrosine position; supplemental Fig. S1). Subsequent arrays were generated by alanine scanning from the pT353 and pT367 peptide sequences. The peptide arrays were soaked in 100% ethanol and blocked in 5% milk in H2O for 6 h at 20 °C. One microgram of GST-MOB1B (or GST alone) was used to probe the arrays at 20 °C overnight. Following washes with PBS plus 0.1% Tween-20, the arrays were blocked again in 5% milk for 1 h. […]

[1] = 20 nM FITC labeled peptide, recombinant wild-type MOB1A, pH 7.5
[2] = Fig. 3D summary of MST1 phosphopeptide affinities for MOB1A, read-out: Kd

Molecule: CC[C@H](C)[C@H](NC(=O)[C@H](CCSC)NC(=O)[C@@H](NC(=O)[C@H](CC(N)=O)NC(=O)[C@H](C)NC(=O)CNC(=O)[C@H](CC(=O)O)NC(=O)[C@@H](NC(=O)[C@H](CCSC)NC(=O)[C@@H](NC(=O)[C@H](CO)NC(=O)[C@H](C)NC(=O)[C@@H](N)C(C)C)[C@@H](C)O)[C@@H](C)O)[C@@H](C)OP(=O)(O)O)C(=O)N[C@@H](CCC(=O)O)C(=O)N[C@@H](Cc1c[nH]cn1)C(=O)O [pT353] (HELM PEPTIDE1{V.A.S.T.M.T.D.G.A.N.[C[C@@H](OP(=O)(O)O)[C@H](N[*:1])C(=O)[*:2]].M.I.E.H}$$$$V2.0)
- Kd (MOB1A; 20 nM FITC labeled peptide, recombinant wild-type MOB1A, pH 7.5, read-out: Kd): 0.28 µM
- Kd (MOB1A KRR→3A mutant): no measurable binding

Molecule: CSCC[C@H](NC(=O)[C@H](CCC(=O)O)NC(=O)[C@H](CC(=O)O)NC(=O)CNC(=O)[C@@H](NC(=O)[C@H](C)NC(=O)[C@H](CCCNC(=N)N)NC(=O)[C@@H](NC(=O)[C@H](CCSC)NC(=O)[C@@H](NC(=O)CN)[C@@H](C)OP(=O)(O)O)C(C)C)C(C)C)C(=O)NCC(=O)N[C@H](C(=O)N[C@H](C(=O)N[C@@H](CCCNC(=N)N)C(=O)O)C(C)C)[C@@H](C)OP(=O)(O)O [MST1 pT329/pT340 peptide] (HELM PEPTIDE1{G.[C[C@@H](OP(=O)(O)O)[C@H](N[*:1])C(=O)[*:2]].M.V.R.A.V.G.D.E.M.G.[C[C@@H](OP(=O)(O)O)[C@H](N[*:1])C(=O)[*:2]].V.R}$$$$V2.0)
- Kd (MOB1A; Supplemental Fig. 4A, 4B, MOB1A, differentially phosphorylated MST1 15-mer peptides, mean ± SEM (n=3), read-out: kd): 49 ± 6 µM

Molecule: TVLNNYSpTVHQKVPS
- Kd (yeast Mob1): 2.4 µM

Molecule: AKPSFLEYFEQKEKE [MST1 residues 391 to 405]
- binding signal in Far-Western peptide array (GST-MOB1B): sufficient to bind to MOB1B

Molecule: CSCC[C@H](NC(=O)[C@H](CCC(=O)O)NC(=O)[C@H](CC(=O)O)NC(=O)CNC(=O)[C@@H](NC(=O)[C@H](C)NC(=O)[C@H](CCCNC(=N)N)NC(=O)[C@@H](NC(=O)[C@H](CCSC)NC(=O)[C@@H](NC(=O)CN)[C@@H](C)O)C(C)C)C(C)C)C(=O)NCC(=O)N[C@H](C(=O)N[C@H](C(=O)N[C@@H](CCCNC(=N)N)C(=O)O)C(C)C)[C@@H](C)OP(=O)(O)O [MST1 T329/pT340 peptide] (HELM PEPTIDE1{G.T.M.V.R.A.V.G.D.E.M.G.[C[C@@H](OP(=O)(O)O)[C@H](N[*:1])C(=O)[*:2]].V.R}$$$$V2.0)
- Kd (MOB1A; [2]): 66.1 µM

Molecule: CSCC[C@H](NC(=O)[C@H](CCC(=O)O)NC(=O)[C@H](CC(=O)O)NC(=O)CNC(=O)[C@@H](NC(=O)[C@H](C)NC(=O)[C@H](CCCNC(=N)N)NC(=O)[C@@H](NC(=O)[C@H](CCSC)NC(=O)[C@@H](NC(=O)CN)[C@@H](C)OP(=O)(O)O)C(C)C)C(C)C)C(=O)NCC(=O)N[C@H](C(=O)N[C@H](C(=O)N[C@@H](CCCNC(=N)N)C(=O)O)C(C)C)[C@@H](C)O [MST1 pT329/T340 peptide] (HELM PEPTIDE1{G.[C[C@@H](OP(=O)(O)O)[C@H](N[*:1])C(=O)[*:2]].M.V.R.A.V.G.D.E.M.G.T.V.R}$$$$V2.0)
- Kd (MOB1A; [2]): 46.5 µM

Continued, values first:

- Kd (MOB1A; [1]): no detectable binding
Molecule: CC[C@H](C)[C@H](NC(=O)[C@@H](NC(=O)[C@H](CCSC)NC(=O)[C@@H](NC(=O)CNC(=O)[C@H](CC(C)C)NC(=O)[C@H](CCC(N)=O)NC(=O)[C@H](CO)NC(=O)[C@@H]1CCCN1C(=O)[C@H](CC(C)C)NC(=O)[C@@H](NC(=O)[C@H](CC(=O)O)NC(=O)[C@@H](N)CC(=O)O)[C@@H](C)O)[C@@H](C)O)C(C)C)C(=O)N[C@@H](CC(N)=O)C(=O)N[C@@H](C)C(=O)O [T367] (H-DDTLPSQLGTMVINA-OH)

- Kd (MOB1A; [1]): no detectable binding
Molecule: CC[C@H](C)[C@H](NC(=O)[C@H](CCSC)NC(=O)[C@@H](NC(=O)[C@H](CC(N)=O)NC(=O)[C@H](C)NC(=O)CNC(=O)[C@H](CC(=O)O)NC(=O)[C@@H](NC(=O)[C@H](CCSC)NC(=O)[C@@H](NC(=O)[C@H](CO)NC(=O)[C@H](C)NC(=O)[C@@H](N)C(C)C)[C@@H](C)O)[C@@H](C)O)[C@@H](C)O)C(=O)N[C@@H](CCC(=O)O)C(=O)N[C@@H](Cc1c[nH]cn1)C(=O)O [T353] (H-VASTMTDGANTMIEH-OH)
